Several values for one entry are separate records, joined by “and”; a condition that tells them apart may be missing. Equal entries are not always repeated.
How the values were obtained:
[1] = species: Rattus norvegicus
[2] = species: Rattus norvegicus; remark: listed apart in the source
[3] = species: Rattus norvegicus; remark: listed apart in the source
[4] = target: Sodium channel protein type 4 subunit alpha (Homo sapiens, UniProt P35499); test: Inhibition of human Nav1.4 expressed in HEK293 cells by electrophysiology assay; type: cell-based
Sodium channel protein type 4 subunit alpha, sequence (P35499 whole entry): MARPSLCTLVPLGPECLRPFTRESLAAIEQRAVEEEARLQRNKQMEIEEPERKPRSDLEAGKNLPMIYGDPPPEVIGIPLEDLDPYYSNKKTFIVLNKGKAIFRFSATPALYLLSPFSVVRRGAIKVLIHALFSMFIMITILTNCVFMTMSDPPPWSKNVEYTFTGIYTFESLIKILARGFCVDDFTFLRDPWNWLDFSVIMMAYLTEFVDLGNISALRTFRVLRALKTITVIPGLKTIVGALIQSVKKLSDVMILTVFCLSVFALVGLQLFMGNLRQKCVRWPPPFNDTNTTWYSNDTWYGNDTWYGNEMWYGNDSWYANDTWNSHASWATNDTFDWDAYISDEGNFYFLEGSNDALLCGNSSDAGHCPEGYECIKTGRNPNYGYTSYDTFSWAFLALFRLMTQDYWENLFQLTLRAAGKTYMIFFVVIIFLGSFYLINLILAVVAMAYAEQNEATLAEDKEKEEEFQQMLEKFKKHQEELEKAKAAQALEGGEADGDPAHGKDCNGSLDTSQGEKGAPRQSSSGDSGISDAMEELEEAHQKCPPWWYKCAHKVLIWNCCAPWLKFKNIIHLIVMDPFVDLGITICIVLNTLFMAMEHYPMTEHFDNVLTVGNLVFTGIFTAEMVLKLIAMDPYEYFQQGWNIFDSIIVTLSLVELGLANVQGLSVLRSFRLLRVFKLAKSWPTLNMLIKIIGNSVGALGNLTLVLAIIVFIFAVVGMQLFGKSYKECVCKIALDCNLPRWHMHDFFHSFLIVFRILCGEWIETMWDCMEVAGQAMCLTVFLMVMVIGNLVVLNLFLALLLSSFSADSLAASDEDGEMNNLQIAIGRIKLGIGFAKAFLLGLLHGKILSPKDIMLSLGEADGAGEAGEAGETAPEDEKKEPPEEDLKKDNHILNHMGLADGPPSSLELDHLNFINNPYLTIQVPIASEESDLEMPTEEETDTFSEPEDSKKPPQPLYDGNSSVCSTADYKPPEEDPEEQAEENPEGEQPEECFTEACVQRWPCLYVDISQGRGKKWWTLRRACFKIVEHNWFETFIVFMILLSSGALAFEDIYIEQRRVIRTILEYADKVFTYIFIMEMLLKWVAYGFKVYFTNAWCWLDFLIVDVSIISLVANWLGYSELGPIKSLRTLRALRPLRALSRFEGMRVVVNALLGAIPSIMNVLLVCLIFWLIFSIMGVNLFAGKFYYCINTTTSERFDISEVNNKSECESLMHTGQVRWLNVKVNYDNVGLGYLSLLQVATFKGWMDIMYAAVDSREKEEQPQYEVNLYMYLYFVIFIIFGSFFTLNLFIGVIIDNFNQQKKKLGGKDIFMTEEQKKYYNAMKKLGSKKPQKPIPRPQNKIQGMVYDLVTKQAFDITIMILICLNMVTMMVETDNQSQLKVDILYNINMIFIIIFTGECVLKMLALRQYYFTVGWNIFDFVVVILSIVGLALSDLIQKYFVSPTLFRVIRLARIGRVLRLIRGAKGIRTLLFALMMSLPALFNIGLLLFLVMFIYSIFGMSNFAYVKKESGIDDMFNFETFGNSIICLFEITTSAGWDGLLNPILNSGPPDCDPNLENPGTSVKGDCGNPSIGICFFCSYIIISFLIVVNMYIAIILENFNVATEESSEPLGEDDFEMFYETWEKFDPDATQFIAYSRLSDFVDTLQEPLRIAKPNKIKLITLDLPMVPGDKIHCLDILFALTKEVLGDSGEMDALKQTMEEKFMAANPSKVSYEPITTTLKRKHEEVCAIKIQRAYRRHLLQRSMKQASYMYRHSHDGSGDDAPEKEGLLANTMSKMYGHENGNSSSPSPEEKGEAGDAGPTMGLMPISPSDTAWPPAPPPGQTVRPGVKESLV

[5] = target: Sodium channel protein type 8 subunit alpha (Homo sapiens, UniProt Q9UQD0); test: Inhibition of human Nav1.6 expressed in HEK293 cells by electrophysiology assay; type: cell-based
Sodium channel protein type 8 subunit alpha, sequence (Q9UQD0 whole entry): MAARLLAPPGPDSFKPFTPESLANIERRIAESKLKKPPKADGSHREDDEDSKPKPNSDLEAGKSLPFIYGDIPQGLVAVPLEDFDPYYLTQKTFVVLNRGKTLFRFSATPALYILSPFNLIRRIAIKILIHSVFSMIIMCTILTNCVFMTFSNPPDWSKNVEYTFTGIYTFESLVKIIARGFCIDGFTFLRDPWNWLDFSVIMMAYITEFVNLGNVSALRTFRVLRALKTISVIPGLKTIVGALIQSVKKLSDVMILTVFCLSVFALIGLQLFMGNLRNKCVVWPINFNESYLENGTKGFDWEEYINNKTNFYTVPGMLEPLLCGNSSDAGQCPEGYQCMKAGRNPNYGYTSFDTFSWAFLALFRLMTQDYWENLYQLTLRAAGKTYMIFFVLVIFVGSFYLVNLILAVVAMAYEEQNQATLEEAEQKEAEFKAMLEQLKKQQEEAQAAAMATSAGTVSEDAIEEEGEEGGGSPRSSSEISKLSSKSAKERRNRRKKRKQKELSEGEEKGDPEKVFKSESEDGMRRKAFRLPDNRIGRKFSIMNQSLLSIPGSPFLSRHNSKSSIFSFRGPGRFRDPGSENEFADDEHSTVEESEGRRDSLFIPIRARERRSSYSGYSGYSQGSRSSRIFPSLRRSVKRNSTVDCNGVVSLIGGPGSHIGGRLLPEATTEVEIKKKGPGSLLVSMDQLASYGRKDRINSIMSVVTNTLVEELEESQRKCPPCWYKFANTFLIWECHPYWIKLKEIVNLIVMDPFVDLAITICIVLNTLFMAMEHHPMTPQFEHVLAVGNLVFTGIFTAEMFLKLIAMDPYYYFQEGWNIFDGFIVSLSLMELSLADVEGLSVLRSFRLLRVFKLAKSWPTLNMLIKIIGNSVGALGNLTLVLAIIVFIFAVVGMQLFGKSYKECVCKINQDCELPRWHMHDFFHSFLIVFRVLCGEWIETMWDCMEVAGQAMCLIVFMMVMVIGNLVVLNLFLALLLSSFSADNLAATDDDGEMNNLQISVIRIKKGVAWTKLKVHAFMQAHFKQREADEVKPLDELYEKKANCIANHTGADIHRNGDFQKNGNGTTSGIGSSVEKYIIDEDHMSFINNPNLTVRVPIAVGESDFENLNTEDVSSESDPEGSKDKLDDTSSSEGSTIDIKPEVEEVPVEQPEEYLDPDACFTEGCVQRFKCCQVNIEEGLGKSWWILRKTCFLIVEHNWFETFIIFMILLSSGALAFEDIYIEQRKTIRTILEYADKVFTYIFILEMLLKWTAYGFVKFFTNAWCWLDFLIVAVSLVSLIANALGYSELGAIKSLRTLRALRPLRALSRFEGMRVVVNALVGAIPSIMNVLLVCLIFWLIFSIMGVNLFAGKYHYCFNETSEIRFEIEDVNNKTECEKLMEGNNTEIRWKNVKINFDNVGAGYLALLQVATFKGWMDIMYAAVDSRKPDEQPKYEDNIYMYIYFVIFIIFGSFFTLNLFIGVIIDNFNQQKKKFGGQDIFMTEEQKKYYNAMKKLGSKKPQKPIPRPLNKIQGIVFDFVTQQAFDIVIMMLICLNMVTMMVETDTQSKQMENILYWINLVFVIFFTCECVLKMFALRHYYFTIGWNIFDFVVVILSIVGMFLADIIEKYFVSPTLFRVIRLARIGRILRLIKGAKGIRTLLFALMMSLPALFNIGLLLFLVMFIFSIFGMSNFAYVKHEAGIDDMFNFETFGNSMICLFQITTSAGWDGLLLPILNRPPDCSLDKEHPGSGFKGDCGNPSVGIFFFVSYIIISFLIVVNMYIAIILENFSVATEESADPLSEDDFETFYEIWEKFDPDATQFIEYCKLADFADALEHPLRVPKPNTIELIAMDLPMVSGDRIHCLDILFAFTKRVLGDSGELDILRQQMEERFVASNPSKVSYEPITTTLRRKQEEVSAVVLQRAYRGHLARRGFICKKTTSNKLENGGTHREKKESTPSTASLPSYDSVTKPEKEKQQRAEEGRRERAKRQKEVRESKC

[6] = target: Sodium channel protein type 10 subunit alpha (Homo sapiens, UniProt Q9Y5Y9); test: Inhibition of human Nav1.8 expressed in HEK293 cells by electrophysiology assay; type: cell-based
[7] = target: Sodium channel protein type 2 subunit alpha (Homo sapiens, UniProt Q99250); test: Inhibition of human Nav1.2 expressed in HEK293 cells by electrophysiology assay; type: cell-based
[8] = target: Sodium channel protein type 5 subunit alpha (Homo sapiens, UniProt Q14524); test: Inhibition of human Nav1.5 expressed in HEK293 cells by electrophysiology assay; type: cell-based
[9] = Cmax in healthy human; type: ADME; details: in vivo
[10] = species: Homo sapiens; test: Selectivity index, ratio of IC50 for inhibition of human Nav1.1 expressed in HEK293 cells by electrophysiology assay to IC50 for inhibition of human Nav1.7 expressed in HEK293 cells by electrophysiology assay; type: cell-based
[11] = target: Sodium channel protein type 3 subunit alpha (Homo sapiens, UniProt Q9NY46); test: Inhibition of human Nav1.3 expressed in HEK293 cells by electrophysiology assay; type: cell-based
[12] = species: Homo sapiens; test: Selectivity index, ratio of IC50 for inhibition of human Nav1.4 expressed in HEK293 cells by electrophysiology assay to IC50 for inhibition of human Nav1.7 expressed in HEK293 cells by electrophysiology assay; type: cell-based
[13] = species: Homo sapiens; test: Selectivity index, ratio of IC50 for inhibition of human Nav1.5 expressed in HEK293 cells by electrophysiology assay to IC50 for inhibition of human Nav1.7 expressed in HEK293 cells by electrophysiology assay; type: cell-based
[14] = Ratio of unbound plasma concentration in mouse model of histamine-induced pain to IC50 for inhibition of mouse Nav1.7 expressed in HEK293 cells by electrophysiology assay; type: cell-based
[15] = species: Homo sapiens; test: Selectivity index, ratio of IC50 for inhibition of human Nav1.3 expressed in HEK293 cells by electrophysiology assay to IC50 for inhibition of human Nav1.7 expressed in HEK293 cells by electrophysiology assay; type: cell-based
[16] = target: Sodium channel protein type 9 subunit alpha (Rattus norvegicus, UniProt O08562); test: Inhibition of rat Nav1.7 expressed in HEK293 cells by electrophysiology assay; type: cell-based
[17] = Ratio of unbound plasma concentration in mouse model of capsaicin-induced pain to IC50 for inhibition of mouse Nav1.7 expressed in HEK293 cells by electrophysiology assay; type: cell-based
[18] = target: Sodium channel protein type 1 subunit alpha (Homo sapiens, UniProt P35498); test: Inhibition of human Nav1.1 expressed in HEK293 cells by electrophysiology assay; type: cell-based
[19] = Unbound fraction in mouse plasma; type: ADME, cell-free

For `NC1=N[C@H](O)[C@H]2[C@H]3O[C@]4(O)O[C@@H]([C@@H](O)[C@@]2(N1)[C@@H]4O)[C@]3(O)CO`, which ED [1] is on record?
The ED was 1 to 3 µg/kg.

What about the ED [2] of the same compound?
Its ED is 1 µg/kg.

And the ED [3]?
Its ED is 6 µg/kg.

With `N#Cc1cc(S(=O)(=O)Nc2ncns2)ccc1Oc1ccc(-c2cccc(C(F)(F)F)c2)cc1-c1ccnc(CNCCC2CCNCC2)c1` as the compound, how does the IC50 [4] read?
Its IC50 is 1.5 µM.

And the IC50 [5]?
Its IC50 is 0.0058 µM.

What about the IC50 [6] of the same compound?
Its IC50 is 26 µM.

What about the IC50 [7] of the same compound?
The IC50 was 0.003 µM.

And the IC50 [8]?
The IC50 was 2.6 µM.

For `Nc1[nH]ncc1-c1cc(Cl)ccc1Oc1cc(F)c(S(=O)(=O)Nc2cscn2)cc1Cl` [PF-05089771], which Cmax [9] is on record?
Its Cmax is > 10000 ng/mL.

Which IC50 [4] does the source give for `COc1cc(-c2cc(F)cc(Cl)c2)c(F)cc1-n1c(=O)ccc2cc(S(=O)(=O)Nc3ccon3)ccc21` here?
Its IC50 is > 14 µM.

And the IC50 ([4]; hek293)?
The IC50 was > 14 µM.

What about the Ratio IC50 [10] of the same compound?
Its Ratio IC50 is > 4300.

What about the IC50 [11] of the same compound?
The IC50 was > 14 µM.

What about the IC50 ([11]; hek293) of the same compound?
Its IC50 is > 14 µM.

And the IC50 [5]?
Its IC50 is 1.3 µM and > 10 µM.

What about the Ratio IC50 [12] of the same compound?
The Ratio IC50 was > 4300.

What about the Ratio IC50 [13] of the same compound?
The Ratio IC50 was > 4300.

And the IC50 [8]?
Its IC50 is > 14 µM.

What about the IC50 ([8]; hek293) of the same compound?
The IC50 was > 14 µM.

What about the Ratio [14] of the same compound?
Its Ratio is 5.3 and 4.

What about the Ratio IC50 [15] of the same compound?
The Ratio IC50 was > 4300.

And the IC50 [16]?
Its IC50 is 8.6 µM and > 42 µM.

What about the Ratio [17] of the same compound?
The Ratio was 21.

And the IC50 [18]?
The IC50 was > 14 µM.

And the IC50 ([18]; hek293)?
Its IC50 is > 14 µM.

And the Fu [19]?
Its Fu is 0.014.

And the fraction unbound [19]?
Its fraction unbound is 0.0017.

For `O=C(NS(=O)(=O)N1CCC1)c1cc(C2CC2)c(OCC23CC4CC(CC(C4)C2)C3)cc1F`, which IC50 [5] is on record?
Its IC50 is 0.48 µM.

And the IC50 [7]?
Its IC50 is 0.02 µM.

And the IC50 [8]?
The IC50 was 0.049 µM.

Source: ChEMBL document CHEMBL4321785, “Challenges and Opportunities for Therapeutics Targeting the Voltage-Gated Sodium Channel Isoform NaV1.7” (J Med Chem, 2019)
